What was measured:
Experiment in all cases: relative viability (nuclei count vs DMSO), 5 days (fraction); higher = more cells survive
Darinaparsin + Alpelisib = compound: C[As](C)SC[C@H](NC(=O)CC[C@H](N)C(=O)O)C(=O)NCC(=O)O [Darinaparsin] + Cc1nc(NC(=O)N2CCC[C@H]2C(N)=O)sc1-c1ccnc(C(C)(C)C(F)(F)F)c1 [Alpelisib] (partner 2 µM)
Outline: (§1)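 Dosing by pin tool came one day after lung cancer cell lines were seeded in 1536-well plates, using either one drug or a fixed anchor-drug dose plus five library-drug doses (not always all listed) in √10 steps. After 5 days, nuclei were counted on 4× images. Relative viability is treated-well nuclei count divided by vehicle-well nuclei count, and values are medians of duplicate plates.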

AZ628 + Foretinib = compound: CC1=C(C=C(C=C1)NC(=O)C2=CC(=CC=C2)C(C)(C)C#N)NC3=CC4=C(C=C3)N=CN(C4=O)C [AZ628] + COc1cc2c(Oc3ccc(NC(=O)C4(C(=O)Nc5ccc(F)cc5)CC4)cc3F)ccnc2cc1OCCCN1CCOCC1 [Foretinib] (partner 0.25 µM)
Outline: as §1

AZ628 + Phenformin = compound: CC1=C(C=C(C=C1)NC(=O)C2=CC(=CC=C2)C(C)(C)C#N)NC3=CC4=C(C=C3)N=CN(C4=O)C [AZ628] + N=C(N)NC(=N)NCCc1ccccc1 [Phenformin] (partner 250 µM)
Outline: as §1

[1] = compound: C[As](C)SC[C@H](NC(=O)CC[C@H](N)C(=O)O)C(=O)NCC(=O)O [Darinaparsin] + CC1(C)CCC(c2ccc(Cl)cc2)=C(CN2CCN(c3ccc(C(=O)NS(=O)(=O)c4ccc(N[C@H](CCN5CCOCC5)CSc5ccccc5)c(S(=O)(=O)C(F)(F)F)c4)cc3)CC2)C1 [Navitoclax] (partner 0.5 µM)
Outline: as §1

Cell Line: LCLC-97TM1
- relative viability (Darinaparsin + Alpelisib; first compound 0.08 µM): 0.244
- relative viability (Darinaparsin + Alpelisib; first compound 0.8 µM): 0.237
- relative viability (Darinaparsin + Alpelisib; first compound 2.53 µM): 0.19
- relative viability (Darinaparsin + Alpelisib; first compound 8 µM): 0.26
- relative viability (AZ628 + Foretinib; first compound 0.08 µM): 0.95
- relative viability (AZ628 + Foretinib; first compound 0.253 µM): 0.867
- relative viability (AZ628 + Foretinib; first compound 0.8 µM): 0.805
- relative viability (AZ628 + Foretinib; first compound 2.53 µM): 0.682
- relative viability (AZ628 + Foretinib; first compound 8 µM): 0.301
- relative viability (AZ628 + Phenformin; first compound 0.08 µM): 0.55
- relative viability (AZ628 + Phenformin; first compound 0.253 µM): 0.459
- relative viability (AZ628 + Phenformin; first compound 0.8 µM): 0.421
- relative viability (AZ628 + Phenformin; first compound 2.53 µM): 0.457
- relative viability (AZ628 + Phenformin; first compound 8 µM): 0.308
- relative viability ([1]; first compound 0.08 µM): 0.383
- relative viability ([1]; first compound 0.8 µM): 0.947
- relative viability ([1]; first compound 2.53 µM): 0.398
- relative viability ([1]; first compound 8 µM): 0.579
